Values after ≈ are worked out from the molar mass of the structure shown.
tested on: Staphylococcus aureus; experiment: Antibacterial activity against methicillin-resistant Staphylococcus aureus USA300 LAC assessed as reduction in bacterial growth incubated for 21 hrs by broth dilution method; assay type: functional

SMILES | MIC
CC(C)C[C@H]1NC(=O)[C@@H]2CSC(N2)[C@H](C(C)C)NC(=O)[C@@H](C(C)C)NC(=O)[C@H](C(C)C)NC(=O)[C@@H](C(C)C)NC(=O)[C@H](Cc2c[nH]c3ccccc23)NC1=O | 128 µM (≈ 100 µg/mL)
CC(C)C[C@H]1NC(=O)[C@H](Cc2cscn2)NC(=O)[C@@H](C(C)C)NC(=O)[C@@H]2CSC(N2)[C@H](C(C)C)NC(=O)[C@@H](C(C)C)NC(=O)[C@H](C(C)C)NC1=O | 133 µM (≈ 100 µg/mL)
CC(C)CC[C@H]1NC(=O)[C@@H]2CSC(N2)[C@H](C(C)C)NC(=O)[C@@H](C(C)C)NC(=O)[C@H](C(C)C)NC(=O)[C@@H](CC(C)C)NC(=O)[C@H](Cc2c[nH]c3ccccc23)NC1=O | 61.7 µM (≈ 50 µg/mL)
CC(C)C[C@H]1NC(=O)[C@H](Cc2ccc(Cl)cc2)NC(=O)[C@@H](C(C)C)NC(=O)[C@@H]2CSC(N2)[C@H](C(C)C)NC(=O)[C@@H](C(C)C)NC(=O)[C@H](C(C)C)NC1=O | 129 µM (≈ 100 µg/mL)
CC(C)C[C@H]1NC(=O)[C@H](Cc2cn(C)c3ccccc23)NC(=O)[C@@H](C(C)C)NC(=O)[C@@H]2CSC(N2)[C@H](C(C)C)NC(=O)[C@@H](C(C)C)NC(=O)[C@H](C(C)C)NC1=O | 15.7 µM (≈ 12.5 µg/mL)
CC(C)C[C@H]1NC(=O)[C@H](C(c2ccccc2)c2ccccc2)NC(=O)[C@@H](C(C)C)NC(=O)[C@@H]2CSC(N2)[C@H](C(C)C)NC(=O)[C@@H](C(C)C)NC(=O)[C@H](C(C)C)NC1=O | 61.1 µM (≈ 50.1 µg/mL)
C#CC[C@@H]1NC(=O)[C@@H](C(C)C)NC(=O)[C@@H]2CSC(N2)[C@H](C(C)C)NC(=O)[C@@H](C(C)C)NC(=O)[C@H](C(C)C)NC(=O)[C@@H](CC(C)C)NC1=O | 72.4 µM (≈ 50.1 µg/mL)
C#CC[C@H]1NC(=O)[C@H](Cc2c[nH]c3ccccc23)NC(=O)[C@@H](C(C)C)NC(=O)[C@@H]2CSC(N2)[C@H](C(C)C)NC(=O)[C@@H](Cc2c[nH]c3ccccc23)NC(=O)[C@H](C(C)C)NC1=O | 58.8 µM (≈ 50.1 µg/mL)
CC(C)C[C@H]1NC(=O)[C@H](Cc2ccc(O)cc2)NC(=O)[C@@H](C(C)C)NC(=O)[C@@H]2CSC(N2)[C@H](C(C)C)NC(=O)[C@@H](C(C)C)NC(=O)[C@H](C(C)C)NC1=O | 132 µM (≈ 100 µg/mL)
CC(C)C[C@H]1NC(=O)[C@H](Cc2c[nH]c3ccccc23)NC(=O)[C@@H](Cc2c[nH]c3ccccc23)NC(=O)[C@@H]2CSC(N2)[C@H](C(C)C)NC(=O)[C@@H](C(C)C)NC(=O)[C@H](C(C)C)NC1=O | 28.8 µM (≈ 25.1 µg/mL)
CC(C)C[C@H]1NC(=O)[C@H](Cc2c3ccccc3cc3ccccc23)NC(=O)[C@@H](C(C)C)NC(=O)[C@@H]2CSC(N2)[C@H](C(C)C)NC(=O)[C@@H](C(C)C)NC(=O)[C@H](C(C)C)NC1=O | 7.4 µM (≈ 6.25 µg/mL)
CC(C)C[C@H]1NC(=O)[C@H](c2ccccc2)NC(=O)[C@@H](C(C)C)NC(=O)[C@@H]2CSC(N2)[C@H](C(C)C)NC(=O)[C@@H](C(C)C)NC(=O)[C@H](C(C)C)NC1=O | 137 µM (≈ 100 µg/mL)
CCC[C@H]1NC(=O)[C@@H]2CSC(N2)[C@H](C(C)C)NC(=O)[C@@H](C(C)C)NC(=O)[C@H](C(C)C)NC(=O)[C@@H](CC(C)C)NC(=O)[C@H](Cc2c[nH]c3ccccc23)NC1=O | 16 µM (≈ 12.5 µg/mL)
C=CC[C@H]1NC(=O)[C@H](Cc2c[nH]c3ccccc23)NC(=O)[C@@H](C(C)C)NC(=O)[C@@H]2CSC(N2)[C@H](C(C)C)NC(=O)[C@@H](Cc2c[nH]c3ccccc23)NC(=O)[C@H](C(C)C)NC1=O | 58.6 µM (≈ 50 µg/mL)
CC(C)C[C@H]1NC(=O)[C@H](Cc2ccc(O)c(O)c2)NC(=O)[C@@H](C(C)C)NC(=O)[C@@H]2CSC(N2)[C@H](C(C)C)NC(=O)[C@@H](C(C)C)NC(=O)[C@H](C(C)C)NC1=O | 130 µM (≈ 101 µg/mL)
CC(C)C[C@H]1NC(=O)[C@H](Cc2ccncc2)NC(=O)[C@@H](C(C)C)NC(=O)[C@@H]2CSC(N2)[C@H](C(C)C)NC(=O)[C@@H](C(C)C)NC(=O)[C@H](C(C)C)NC1=O | 134 µM (≈ 100 µg/mL)
CC(C)C[C@H]1NC(=O)[C@H](Cc2cccc([N+](=O)[O-])c2)NC(=O)[C@@H](C(C)C)NC(=O)[C@@H]2CSC(N2)[C@H](C(C)C)NC(=O)[C@@H](C(C)C)NC(=O)[C@H](C(C)C)NC1=O | 127 µM (≈ 100 µg/mL)
CC(C)C[C@H]1NC(=O)[C@H](Cc2nc3ccccc3s2)NC(=O)[C@@H](C(C)C)NC(=O)[C@@H]2CSC(N2)[C@H](C(C)C)NC(=O)[C@@H](C(C)C)NC(=O)[C@H](C(C)C)NC1=O | 31.3 µM (≈ 25.1 µg/mL)
CCC[C@H]1NC(=O)[C@H](Cc2c[nH]c3ccccc23)NC(=O)[C@@H](C(C)C)NC(=O)[C@@H]2CSC(N2)[C@H](C(C)C)NC(=O)[C@@H](Cc2c[nH]c3ccccc23)NC(=O)[C@H](C(C)C)NC1=O | 14.6 µM (≈ 12.5 µg/mL)
CC(C)C[C@H]1NC(=O)[C@H](Cc2ccco2)NC(=O)[C@@H](C(C)C)NC(=O)[C@@H]2CSC(N2)[C@H](C(C)C)NC(=O)[C@@H](C(C)C)NC(=O)[C@H](C(C)C)NC1=O | 136 µM (≈ 100 µg/mL)
CC(C)C[C@H]1NC(=O)[C@H](Cc2c[nH]c3ccccc23)NC(=O)[C@@H](C(C)(C)C)NC(=O)[C@@H]2CSC(N2)[C@H](C(C)C)NC(=O)[C@@H](C(C)C)NC(=O)[C@H](C(C)C)NC1=O | 31.4 µM (≈ 25 µg/mL)
CC(C)C[C@H]1NC(=O)[C@H](Cc2c[nH]c3ccccc23)NC(=O)[C@@H](C(C)C)NC(=O)[C@@H]2CSC(N2)[C@H](C(C)C)NC(=O)[C@@H](Cc2c[nH]c3ccccc23)NC(=O)[C@H](C(C)C)NC1=O | 1.8 µM (≈ 1.57 µg/mL)

SMILES | MIC
CC[C@@H](C)[C@H]1NC(=O)[C@H](Cc2c[nH]c3ccccc23)NC(=O)[C@@H](C(C)C)NC(=O)[C@@H]2CSC(N2)[C@H](C(C)C)NC(=O)[C@@H](C(C)C)NC(=O)[C@H](C(C)C)NC1=O | 14.4 µM (≈ 11.3 µg/mL)
C=CC[C@H]1NC(=O)[C@@H]2CSC(N2)[C@H](C(C)C)NC(=O)[C@@H](Cc2c[nH]c3ccccc23)NC(=O)[C@H](C(C)C)NC(=O)[C@@H](CC(C)C)NC(=O)[C@H](Cc2c[nH]c3ccccc23)NC1=O | 14.4 µM (≈ 12.5 µg/mL)
CC(C)C[C@H]1NC(=O)[C@H](Cc2c[nH]c3ccccc23)NC(=O)[C@@H](Cc2ccccc2)NC(=O)[C@@H]2CSC(N2)[C@H](C(C)C)NC(=O)[C@@H](C(C)C)NC(=O)[C@H](C(C)C)NC1=O | 120 µM (≈ 100 µg/mL)
CC(C)C[C@H]1NC(=O)[C@H](Cc2ccc(C(=O)c3ccccc3)cc2)NC(=O)[C@@H](C(C)C)NC(=O)[C@@H]2CSC(N2)[C@H](C(C)C)NC(=O)[C@@H](C(C)C)NC(=O)[C@H](C(C)C)NC1=O | 59 µM (≈ 50 µg/mL)
CC(C)C[C@H]1NC(=O)[C@H](Cc2cccs2)NC(=O)[C@@H](C(C)C)NC(=O)[C@@H]2CSC(N2)[C@H](C(C)C)NC(=O)[C@@H](C(C)C)NC(=O)[C@H](C(C)C)NC1=O | 134 µM (≈ 100 µg/mL)
CC(C)C[C@H]1NC(=O)[C@H](Cc2cccc3ccccc23)NC(=O)[C@@H](C(C)C)NC(=O)[C@@H]2CSC(N2)[C@H](C(C)C)NC(=O)[C@@H](C(C)C)NC(=O)[C@H](C(C)C)NC1=O | 7.9 µM (≈ 6.27 µg/mL)
CC(C)C[C@H]1NC(=O)[C@@H]2Cc3ccccc3CN2C(=O)[C@@H](C(C)C)NC(=O)[C@@H]2CSC(N2)[C@H](C(C)C)NC(=O)[C@@H](C(C)C)NC(=O)[C@H](C(C)C)NC1=O | 132 µM (≈ 100 µg/mL)
CC(C)[C@@H]1NC(=O)[C@@H](Cc2c[nH]c3ccccc23)NC(=O)[C@H](C(C)C)NC(=O)[C@@H](C(C)(C)C)NC(=O)[C@H](Cc2c[nH]c3ccccc23)NC(=O)[C@@H](C(C)C)NC(=O)[C@@H]2CSC1N2 | 28.8 µM (≈ 25.1 µg/mL)
CC(C)C[C@H]1NC(=O)[C@@H]2CSC(N2)[C@H](C(C)C)NC(=O)[C@@H](C(C)C)NC(=O)[C@H](C(C)C)NC(=O)[C@@H](CC(C)C)NC(=O)[C@H](Cc2c[nH]c3ccccc23)NC1=O | 15.7 µM (≈ 12.5 µg/mL)
CC(C)C[C@H]1NC(=O)[C@@H]2CSC(N2)[C@H](C(C)C)NC(=O)[C@@H](Cc2c[nH]c3ccccc23)NC(=O)[C@H](C(C)C)NC(=O)[C@@H](CC(C)C)NC(=O)[C@H](Cc2c[nH]c3ccccc23)NC1=O | 113 µM (≈ 99.9 µg/mL)
CC(C)C[C@H]1NC(=O)[C@H](Cc2csc3ccccc23)NC(=O)[C@@H](C(C)C)NC(=O)[C@@H]2CSC(N2)[C@H](C(C)C)NC(=O)[C@@H](C(C)C)NC(=O)[C@H](C(C)C)NC1=O | 15.6 µM (≈ 12.5 µg/mL)
CC[C@@H](C)[C@H]1NC(=O)[C@@H]2CSC(N2)[C@H](C(C)C)NC(=O)[C@@H](C(C)C)NC(=O)[C@H](C(C)C)NC(=O)[C@@H](CC(C)C)NC(=O)[C@H](Cc2c[nH]c3ccccc23)NC1=O | 31.4 µM (≈ 25 µg/mL)
CC[C@H](C)[C@H]1NC(=O)[C@@H]2CSC(N2)[C@H](C(C)C)NC(=O)[C@@H](C(C)C)NC(=O)[C@H](C(C)C)NC(=O)[C@@H](CC(C)C)NC(=O)[C@H](Cc2c[nH]c3ccccc23)NC1=O | 7.9 µM (≈ 6.3 µg/mL)
CC(C)C[C@H]1NC(=O)[C@H](Cc2ccccc2)NC(=O)[C@@H](C(C)C)NC(=O)[C@@H]2CSC(N2)[C@H](C(C)C)NC(=O)[C@@H](C(C)C)NC(=O)[C@H](C(C)C)NC1=O | 16.8 µM (≈ 12.5 µg/mL)
CSCC[C@H]1NC(=O)[C@@H]2CSC(N2)[C@H](C(C)C)NC(=O)[C@@H](Cc2c[nH]c3ccccc23)NC(=O)[C@H](C(C)C)NC(=O)[C@@H](CC(C)C)NC(=O)[C@H](Cc2c[nH]c3ccccc23)NC1=O | 111 µM (≈ 100 µg/mL)
CCC[C@H]1NC(=O)[C@@H]2CSC(N2)[C@H](C(C)C)NC(=O)[C@@H](Cc2c[nH]c3ccccc23)NC(=O)[C@H](C(C)C)NC(=O)[C@@H](CC(C)C)NC(=O)[C@H](Cc2c[nH]c3ccccc23)NC1=O | 7.2 µM (≈ 6.26 µg/mL)
CC[C@H](C)[C@H]1NC(=O)[C@H](Cc2c[nH]c3ccccc23)NC(=O)[C@@H](C(C)C)NC(=O)[C@@H]2CSC(N2)[C@H](C(C)C)NC(=O)[C@@H](C(C)C)NC(=O)[C@H](C(C)C)NC1=O | 31.9 µM (≈ 25 µg/mL)
CC(C)[C@@H]1NC(=O)[C@@H](Cc2c[nH]c3ccccc23)NC(=O)[C@H](C(C)C)NC(=O)[C@H]2CCCN2C(=O)[C@H](Cc2c[nH]c3ccccc23)NC(=O)[C@@H](C(C)C)NC(=O)[C@@H]2CSC1N2 | 117 µM (≈ 100 µg/mL)
CC(C)C[C@H]1NC(=O)[C@H](Cc2c[nH]cn2)NC(=O)[C@@H](C(C)C)NC(=O)[C@@H]2CSC(N2)[C@H](C(C)C)NC(=O)[C@@H](C(C)C)NC(=O)[C@H](C(C)C)NC1=O | 136 µM (≈ 100 µg/mL)
CC(C)C[C@H]1NC(=O)[C@H](Cc2c(F)c(F)c(F)c(F)c2F)NC(=O)[C@@H](C(C)C)NC(=O)[C@@H]2CSC(N2)[C@H](C(C)C)NC(=O)[C@@H](C(C)C)NC(=O)[C@H](C(C)C)NC1=O | 30 µM (≈ 25 µg/mL)
CC(C)C[C@H]1NC(=O)[C@H](Cc2ccc(-c3ccccc3)cc2)NC(=O)[C@@H](C(C)C)NC(=O)[C@@H]2CSC(N2)[C@H](C(C)C)NC(=O)[C@@H](C(C)C)NC(=O)[C@H](C(C)C)NC1=O | 30.5 µM (≈ 25 µg/mL)
C#CC[C@H]1NC(=O)[C@@H]2CSC(N2)[C@H](C(C)C)NC(=O)[C@@H](Cc2c[nH]c3ccccc23)NC(=O)[C@H](C(C)C)NC(=O)[C@@H](CC(C)C)NC(=O)[C@H](Cc2c[nH]c3ccccc23)NC1=O | 3.9 µM (≈ 3.38 µg/mL)

Reference: ChEMBL document CHEMBL4834415, “Distinct Lugdunins from a New Efficient Synthesis and Broad Exploitation of Its MRSA-Antimicrobial Structure” (2021)
